Reference: ChEMBL document CHEMBL1141299, “Hologram QSAR model for the prediction of human oral bioavailability” (Bioorg Med Chem, 2007)

assay: Oral bioavailability in human; conditions: in vivo

Row | Structure (SMILES) | bioavailability
1 | C[C@H](NC(C)(C)C)C(=O)c1cccc(Cl)c1 | 70%
2 | CN1CCN(C(=O)O[C@@H]2c3nccnc3C(=O)N2c2ccc(Cl)cn2)CC1 | 80%
3 | C[C@@H](N)Cc1cccc(C(F)(F)F)c1 | 85%
4 | N[C@H](Cc1ccc(N(CCCl)CCCl)cc1)C(=O)O | 71%
5 | C[C@@H](NC(C)(C)C)C(=O)c1cccc(Cl)c1 | 70%
6 | COc1ccc([C@H](CN(C)C)C2(O)CCCCC2)cc1 | 45%
7 | O=C(O)[C@H]1N=C(c2ccccc2)c2cc(Cl)ccc2NC1=O | 91%
8 | CCN(CC)C(=O)[C@]1(c2ccccc2)C[C@@H]1CN | 84%
9 | O=C(O)[C@@H]1N=C(c2ccccc2)c2cc(Cl)ccc2NC1=O | 91%
10 | NS(=O)(=O)c1cc([C@@]2(O)NC(=O)c3ccccc32)ccc1Cl | 64%
11 | N[C@@H](Cc1ccc(N(CCCl)CCCl)cc1)C(=O)O | 71%
12 | CC(C)=CCN1CC[C@]2(C)c3cc(O)ccc3C[C@H]1[C@H]2C [(+)-PENTAZOCINE] | 18%
13 | NS(=O)(=O)c1cc([C@]2(O)NC(=O)c3ccccc32)ccc1Cl [(R)-CHLORTHALIDONE] | 64%
14 | CN(C)CCC[C@]1(c2ccc(F)cc2)OCc2cc(C#N)ccc21 [(R)-CITALOPRAM] | 80%
15 | COc1c(N2CCN[C@H](C)C2)c(F)cc2c(=O)c(C(=O)O)cn(C3CC3)c12 [(R)-GATIFLOXACIN] | 96%
16 | O=C1Nc2ccc(Cl)cc2C(c2ccccc2Cl)=N[C@@H]1O [(R)-LORAZEPAM] | 93%
17 | CN1C(=O)[C@@H](O)N=C(c2ccccc2Cl)c2cc(Cl)ccc21 [(R)-LORMETAZEPAM] | 75%
18 | CC[C@@]1(c2ccccc2)C(=O)NC(=O)N(C)C1=O [(R)-METHYLPHENOBARBITAL] | 73%
19 | CC(C)N(CC[C@](C(N)=O)(c1ccccc1)c1ccccn1)C(C)C [(S)-DISOPYRAMIDE] | 83%
20 | COc1c(N2CCN[C@@H](C)C2)c(F)cc2c(=O)c(C(=O)O)cn(C3CC3)c12 [(S)-GATIFLOXACIN] | 96%
21 | O=C1Nc2ccc(Cl)cc2C(c2ccccc2Cl)=N[C@H]1O [(S)-LORAZEPAM] | 93%
22 | CN1C(=O)[C@H](O)N=C(c2ccccc2Cl)c2cc(Cl)ccc21 [(S)-LORMETAZEPAM] | 75%
23 | CC[C@]1(c2ccccc2)C(=O)NC(=O)N(C)C1=O [(S)-METHYLPHENOBARBITAL] | 73%
24 | COc1ccc([C@@H](CN(C)C)C2(O)CCCCC2)cc1 [(S)-VENLAFAXINE] | 45%

same assay, conditions: in vivo, F

Row | Structure (SMILES) | bioavailability
25 | CCOc1nc2cccc(C(=O)O)c2n1Cc1ccc(-c2ccccc2-c2nnn[nH]2)cc1 | 15%
26 | COc1ccc(CCN(C)CCCC2(c3ccc(OC)c(OC)c3)S(=O)(=O)CCCS2(=O)=O)cc1OC | 22%
27 | CNS(=O)(=O)CCc1ccc2[nH]cc(C3CCN(C)CC3)c2c1 | 67.5%
28 | CN1CCC[C@@H]1Cc1c[nH]c2ccc(CCS(=O)(=O)c3ccccc3)cc12 | 62.5%
29 | CCCc1nc(C)c2c(=O)[nH]c(-c3cc(S(=O)(=O)N4CCN(CC)CC4)ccc3OCC)nn12 | 15%
30 | CCCc1nn(C)c2c(=O)[nH]c(-c3cc(S(=O)(=O)N4CCN(C)CC4)ccc3OCC)nc12 | 40%
31 | COc1cc(N[C@@H](C)CCCN)c2ncccc2c1 | 96%
32 | CCN(CC)CCC[C@H](C)Nc1ccnc2cc(Cl)ccc12 | 80%
33 | CC(C)COC[C@H](CN(Cc1ccccc1)c1ccccc1)N1CCCC1 | 60%
34 | O=C(NC[C@@H]1CCCCN1)c1cc(OCC(F)(F)F)ccc1OCC(F)(F)F | 95%
35 | C[C@H](N/C(=N/c1ccncc1)NC#N)C(C)(C)C | 57%
36 | COc1cc(N[C@H](C)CCCN)c2ncccc2c1 | 96%
37 | CC(C)NC[C@H](O)c1ccc(NS(C)(=O)=O)cc1 | 60%
38 | CN1CCN2c3ccccc3Cc3ccccc3[C@H]2C1 | 20%
39 | CC(C)NC[C@@H](O)COc1ccc(OCCOCC2CC2)cc1 | 100%
40 | C[C@@H](CN1CCN(CCOCCO)CC1)CN1c2ccccc2Sc2ccccc21 | 10%
41 | COc1ccc(CCN(C)CCC[C@@](C#N)(c2ccc(OC)c(OC)c2)C(C)C)cc1OC | 13.5%
42 | C[C@@H](N/C(=N/c1ccncc1)NC#N)C(C)(C)C | 57%
43 | C[C@H](CN1CCN(CCOCCO)CC1)CN1c2ccccc2Sc2ccccc21 | 10%
44 | CO/N=C1\CN(c2nc3c(cc2F)c(=O)c(C(=O)O)cn3C2CC2)C[C@@H]1CN | 71%
45 | CC(C)NC[C@H](O)COc1ccc(OCCOCC2CC2)cc1 | 100%
46 | CC1=CC[C@H](C(C)(C)O)C[C@H]1O | 72%
47 | CC(C)COC[C@@H](CN(Cc1ccccc1)c1ccccc1)N1CCCC1 | 60%

Row | Structure (SMILES) | bioavailability
48 | CN1Cc2c(N)cccc2[C@@H](c2ccccc2)C1 | 27%
49 | CN1Cc2c(N)cccc2[C@H](c2ccccc2)C1 | 27%
50 | Nc1nc(N)c2nc(-c3ccccc3)c(N)nc2n1 | 51%
51 | CCOC(=O)C(CCc1ccccc1)N[C@@H](C)C(=O)N1CCC[C@H]1C(=O)O (single isomer, unassigned) | 41%
52 | Nc1nc(NC2CC2)c2ncn([C@H]3C=C[C@@H](CO)C3)c2n1 (single isomer, unassigned) [ABACAVIR] | 86%
53 | C[C@@H](OC1OCCN(Cc2n[nH]c(=O)[nH]2)C1c1ccc(F)cc1)c1cc(C(F)(F)F)cc(C(F)(F)F)c1 (single isomer, unassigned) [APREPITANT] | 62.5%
54 | C=C1/C(=C\C=C2/CCC[C@]3(C)[C@@H](C(C)CCCC(C)(C)O)CC[C@@H]23)C[C@@H](O)C[C@@H]1O (single isomer, unassigned) [CALCITRIOL] | 61%
55 | CCCNC1CCc2nc(N)sc2C1 (single isomer, unassigned) [PRAMIPEXOLE] | 90%
56 | Cc1ccsc1C(=CCCN1CCCC(C(=O)O)C1)c1sccc1C (single isomer, unassigned) [TIAGABINE] | 90%
57 | CCc1cccc2cc([C@H](O)CNC(C)(C)C)oc12 [(R)-BUFURALOL] | 46%
58 | CCN(CC)CCC[C@@H](C)Nc1ccnc2cc(Cl)ccc12 [(R)-CHLOROQUINE] | 80%
59 | CCN1C[C@H](CCN2CCOCC2)C(c2ccccc2)(c2ccccc2)C1=O [(R)-DOXAPRAM] | 61%
60 | CCOC(=O)C1=C(C)NC(C)=C(C(=O)OC)[C@H]1c1cccc(Cl)c1Cl [(R)-FELODIPINE] | 15%
61 | CC(C)Cc1ccc([C@@H](C)C(=O)O)cc1 [(R)-IBUPROPHEN] | 80%
62 | COC(=O)C1=C(C)NC(C)=C(C(=O)OC(C)C)[C@@H]1c1cccc2nonc12 [(R)-ISRADIPINE] | 19.5%
63 | Cc1cc2c(OC[C@H](O)CNC(C)C)cccc2[nH]1 [(R)-MEPINDOLOL] | 82%
64 | Cc1cccc(C)c1OC[C@@H](C)N [(R)-MEXILETINE] | 87%
65 | COc1ccc(OC)c([C@@H](O)CNC(=O)CN)c1 [(R)-MIDODRINE] | 93%
66 | CCOC(=O)C1=C(C)NC(C)=C(C(=O)OC)[C@H]1c1cccc([N+](=O)[O-])c1 [(R)-NITRENDIPINE] | 16%
67 | Cc1nccn1C[C@H]1CCc2c(c3ccccc3n2C)C1=O [(R)-ONDANSETRON] | 62%
68 | O[C@@](CCN1CCCC1)(c1ccccc1)C1CCCCC1 [(R)-PROCYCLIDINE] | 75%
69 | CCC(=O)c1ccc2c(c1)N(C[C@@H](C)N(C)C)c1ccccc1S2 [(R)-PROPIOMAZINE] | 33%
70 | C[C@@H](O)Cn1cnc2c1c(=O)n(C)c(=O)n2C [(R)-PROXYPHYLLINE] | 100%

Row | Structure (SMILES) | bioavailability
71 | C[C@@H](C(=O)O)c1ccc(C(=O)c2cccs2)cc1 [(R)-SUPROFEN] | 92%
72 | Cc1cccc(C)c1NC(=O)[C@@H](C)N [(R)-TOCAINIDE] | 89%
73 | Cc1cccc(OC[C@H](O)CNC(C)C)c1 [(R)-TOLIPROLOL] | 90%
74 | CC(C)[C@H](N)C(=O)OC[C@@H](CO)OCn1cnc2c(=O)nc(N)[nH]c21 [(R)-VALGANCICLOVIR] | 59.4%
75 | CC(C)(C)NC[C@@H](O)c1ccc(O)c(CO)c1 [(S)-ALBUTEROL] | 71%
76 | CCc1cccc2cc([C@@H](O)CNC(C)(C)C)oc12 [(S)-BUFURALOL] | 46%
77 | CCN1C[C@@H](CCN2CCOCC2)C(c2ccccc2)(c2ccccc2)C1=O [(S)-DOXAPRAM] | 61%
78 | CCOC(=O)C1=C(C)NC(C)=C(C(=O)OC)[C@@H]1c1cccc(Cl)c1Cl [(S)-FELODIPINE] | 15%
79 | COC(=O)C1=C(C)NC(C)=C(C(=O)OC(C)C)[C@H]1c1cccc2nonc12 [(S)-ISRADIPINE] | 19.5%
80 | Cc1cc2c(OC[C@@H](O)CNC(C)C)cccc2[nH]1 [(S)-MEPINDOLOL] | 82%
81 | Cc1cccc(C)c1OC[C@H](C)N [(S)-MEXILETINE] | 87%
82 | COc1ccc(OC)c([C@H](O)CNC(=O)CN)c1 [(S)-MIDODRINE] | 93%
83 | CC(C)[C@H]1CC[C@H](C(=O)N[C@@H](Cc2ccccc2)C(=O)O)CC1 [(S)-NATEGLINIDE] | 73%
84 | CCOC(=O)C1=C(C)NC(C)=C(C(=O)OC)[C@@H]1c1cccc([N+](=O)[O-])c1 [(S)-NITRENDIPINE] | 16%
85 | Cc1nccn1C[C@@H]1CCc2c(c3ccccc3n2C)C1=O [(S)-ONDANSETRON] | 62%
86 | O[C@](CCN1CCCC1)(c1ccccc1)C1CCCCC1 [(S)-PROCYCLIDINE] | 75%
87 | C[C@@H](CN1c2ccccc2Sc2ccccc21)N(C)C [(S)-PROMETHAZINE] | 25%
88 | C[C@H](O)Cn1cnc2c1c(=O)n(C)c(=O)n2C [(S)-PROXYPHYLLINE] | 100%
89 | C[C@H](C(=O)O)c1ccc(C(=O)c2cccs2)cc1 [(S)-SUPROFEN] | 92%
90 | Cc1cccc(OC[C@@H](O)CNC(C)C)c1 [(S)-TOLIPROLOL] | 90%
91 | CC(C)[C@H](N)C(=O)OC[C@H](CO)OCn1cnc2c(=O)nc(N)[nH]c21 [(S)-VALGANCICLOVIR] | 59.4%
92 | CC(=O)Nc1ccc(O)cc1 [ACETAMINOPHEN] | 88%
93 | CN(C)CCc1c[nH]c2ccc(CS(=O)(=O)N3CCCC3)cc12 [ALMOTRIPTAN] | 70%
